target: T1, Cbl-b (Homo sapiens, UniProt Q13191); experiment: Cbl-b probe displacement HTRF binding assay; details: 0.4 nM Cbl-b, 150 nM BODIPY probe
T1 construct: biotin (biotinylated protein)
In short: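 Compound competes with BODIPY probe (150 nM) for biotinylated Cbl-b (0.4 nM) in HEPES/NaCl/Triton/TCEP/BSA buffer; 60 min preincubation, 15 min with probe, room temperature. Tb-streptavidin HTRF read; % displacement vs DMSO and no-protein controls, IC50 from four-parameter fit.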

T1 sequence (Q13191 whole entry, species assumed): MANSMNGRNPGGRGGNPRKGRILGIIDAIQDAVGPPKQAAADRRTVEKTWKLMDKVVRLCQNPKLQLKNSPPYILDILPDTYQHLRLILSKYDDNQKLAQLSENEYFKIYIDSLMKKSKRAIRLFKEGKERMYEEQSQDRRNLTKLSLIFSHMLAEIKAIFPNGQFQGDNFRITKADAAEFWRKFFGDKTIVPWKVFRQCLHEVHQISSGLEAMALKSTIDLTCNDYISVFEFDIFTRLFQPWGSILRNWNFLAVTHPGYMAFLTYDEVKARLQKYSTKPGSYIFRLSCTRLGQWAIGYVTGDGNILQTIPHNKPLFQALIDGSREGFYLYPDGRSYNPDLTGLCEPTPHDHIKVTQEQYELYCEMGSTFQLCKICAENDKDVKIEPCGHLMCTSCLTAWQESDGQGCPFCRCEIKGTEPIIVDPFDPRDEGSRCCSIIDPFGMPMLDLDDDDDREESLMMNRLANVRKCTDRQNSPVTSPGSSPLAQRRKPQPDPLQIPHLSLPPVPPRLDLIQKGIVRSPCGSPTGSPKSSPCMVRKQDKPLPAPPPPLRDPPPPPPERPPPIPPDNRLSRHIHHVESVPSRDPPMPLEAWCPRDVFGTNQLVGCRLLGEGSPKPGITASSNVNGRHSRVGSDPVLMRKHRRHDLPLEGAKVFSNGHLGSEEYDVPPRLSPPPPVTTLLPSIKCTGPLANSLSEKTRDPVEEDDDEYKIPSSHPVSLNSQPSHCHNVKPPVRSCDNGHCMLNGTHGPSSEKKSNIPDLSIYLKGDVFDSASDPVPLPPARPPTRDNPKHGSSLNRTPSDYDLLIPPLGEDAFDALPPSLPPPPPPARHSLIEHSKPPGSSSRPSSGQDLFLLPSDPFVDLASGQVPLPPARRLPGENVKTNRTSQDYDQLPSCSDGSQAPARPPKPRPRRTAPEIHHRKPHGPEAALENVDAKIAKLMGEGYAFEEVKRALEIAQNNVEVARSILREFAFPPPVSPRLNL

IC50, < 100 nM:
COc1ccc(-c2cc(NC(=O)c3cc(CNCC(C)C)cn(C)c3=O)nc(OC(C)C)c2)c(C(=O)N2CC(F)C2)c1 [Example 317]
COc1ccc(-c2cc(NC(=O)c3cc(CN[C@@H](CO)C4CCC4)cn(C4CC4)c3=O)nc(OC(C)C)c2)c(C(=O)N2CC(F)C2)c1 [Example 318]
COc1ccc(-c2cc(NC(=O)c3cc(CNC[C@@H]4CCCO4)cn(C)c3=O)nc(C3CC3)c2)c(C(=O)N2CC(F)C2)c1 [Example 319]
Cc1ccc(-c2cc(NC(=O)c3cc(CNC[C@@H]4CCCO4)cn(C)c3=O)nc(OC(C)C)c2)c(C(=O)N2CC(F)C2)c1 [Example 320]
CO[C@@H](C)CNCc1cc(C(=O)Nc2cc(-c3ccc(OC(F)F)cc3C(=O)N3CC(F)(F)C3)cc(C3CC3)n2)c(=O)n(C2CC2)c1 [Example 321]
CC(C)CNCc1cc(C(=O)Nc2cc(-c3ccc(OC(F)F)cc3C(=O)N3CC(F)(F)C3)cc(C3CC3)n2)c(=O)n(C2CC2)c1 [Example 322]
C[C@H](N[C@H](C)c1cc(C(=O)Nc2cc(-c3ccc(C#N)cc3C(=O)N3CC(F)(F)C3)cc(C3CC3)n2)c(=O)n(C2CC2)c1)C1CC1 [Example 323]
CO[C@@H](C)CNC(C)c1cc(C(=O)Nc2cc(-c3ccc(C#N)cc3C(=O)N3CC(F)(F)C3)cc(C3CC3)n2)c(=O)n(C2CC2)c1 (some centres unmarked) [Example 324]
O=C(Nc1cc(-c2ccc(OC(F)F)cc2C(=O)N2CC(F)(F)C2)cc(C2CC2)n1)c1cc(CNC[C@@H]2CCCO2)cn(C2CC2)c1=O [Example 325]
CC(C)CNC(C)c1cc(C(=O)Nc2cc(-c3ccc(C#N)cc3C(=O)N3CC(F)(F)C3)cc(C3CC3)n2)c(=O)n(C2CC2)c1 (centres unmarked) [Example 326]
C[C@H](NCc1cc(C(=O)Nc2cc(-c3ccc(OC(F)F)cc3C(=O)N3CC(F)(F)C3)cc(C3CC3)n2)c(=O)n(C2CC2)c1)C1CCC1 [Example 327]
C[C@H](N[C@@H](C)C1CC1)c1cc(C(=O)Nc2cc(-c3ccc(C#N)cc3C(=O)N3CC(F)(F)C3)cc(C3CC3)n2)c(=O)n(C2CC2)c1 [Example 328]
CC(N[C@@H](C)C1CCC1)c1cc(C(=O)Nc2cc(-c3ccc(C#N)cc3C(=O)N3CC(F)(F)C3)cc(C3CC3)n2)c(=O)n(C2CC2)c1 (some centres unmarked) [Example 329]
CCNc1cc(-c2ccc(OC(F)F)cc2C(=O)N2CC(F)(F)C2)cc(NC(=O)c2cc(CNC[C@H](C)OC)cn(C3CC3)c2=O)n1 [Example 330]
CCOc1cc(-c2ccc(OC(F)F)cc2C(=O)N2CC(F)(F)C2)cc(NC(=O)c2cc(CNC[C@H](C)OC)cn(C3CC3)c2=O)n1 [Example 331]
CO[C@@H](C)CNCc1cc(C(=O)Nc2cc(-c3ccc(OC(F)F)cc3C(=O)N3CC(F)(F)C3)cc(NC(C)C)n2)c(=O)n(C2CC2)c1 [Example 332]
CC(NCC1CC1)c1cc(C(=O)Nc2cc(-c3ccc(C#N)cc3C(=O)N3CC(F)(F)C3)cc(C3CC3)n2)c(=O)n(C2CC2)c1 (centres unmarked) [Example 333]
COc1cc(-c2ccc(OC(F)F)cc2C(=O)N2CC(F)(F)C2)cc(NC(=O)c2cc(CNC[C@H](C)OC)cn(C3CC3)c2=O)n1 [Example 334]
COC[C@H](C)NC(C)c1cc(C(=O)Nc2cc(-c3ccc(C#N)cc3C(=O)N3CC(F)(F)C3)cc(C3CC3)n2)c(=O)n(C2CC2)c1 (some centres unmarked) [Example 335]
CC(C)[C@H](C)N[C@@H](C)c1cc(C(=O)Nc2cc(-c3ccc(C#N)cc3C(=O)N3CC(F)(F)C3)cc(C3CC3)n2)c(=O)n(C2CC2)c1 [Example 336]
COCCNCc1cc(C(=O)Nc2cc(-c3ccc(OC(F)F)cc3C(=O)N3CC(F)(F)C3)cc(C3CC3)n2)c(=O)n(C2CC2)c1 [Example 337]
CO[C@@H](C)CNCc1cc(C(=O)Nc2cc(-c3ccc(OC(F)F)cc3C(=O)N3CC(F)(F)C3)cc(C)n2)c(=O)n(C2CC2)c1 [Example 338]
CO[C@@H](C)CNCc1cc(C(=O)Nc2cc(-c3ccc(C#N)cc3C(=O)N3CC(F)(F)C3)cc(OC(C)C)n2)c(=O)n(C2CC2)c1 [Example 339]
CCOc1cc(-c2c(F)cc(C#N)cc2C(=O)N2CC(F)(F)C2)cc(NC(=O)c2cc(CNC[C@H](C)OC)cn(C3CC3)c2=O)n1 [Example 340]
N#Cc1ccc(-c2cc(NC(=O)c3cc(CNC[C@@H]4CCCO4)cn(C4CC4)c3=O)nc(OC(F)F)c2)c(C(=O)N2CC(F)(F)C2)c1 [Example 341]
COCCNCc1cc(C(=O)Nc2cc(-c3ccc(C#N)cc3C(=O)N3CC(F)(F)C3)cc(NC(C)C)n2)c(=O)n(C2CC2)c1 [Example 342]
COc1ccc(-c2cc(NC(=O)c3cc(CN[C@@H](C)C4CCC4)cn(C4CC4)c3=O)nc(OCC(F)F)c2)c(C(=O)N2CC(F)(F)C2)c1 [Example 343]
N#Cc1ccc(-c2cc(NC(=O)c3cc(CNC[C@@H]4CCCO4)cn(C4CC4)c3=O)nc(OCF)c2)c(C(=O)N2CC(F)(F)C2)c1 [Example 344]
CCOc1cc(-c2ccc(C#N)cc2C(=O)N2CC(F)(F)C2)cc(NC(=O)c2cc(CNCCOC)cn(C3CC3)c2=O)n1 [Example 345]
CCNc1cc(-c2ccc(C#N)cc2C(=O)N2CC(F)(F)C2)cc(NC(=O)c2cc(CNCCOC)cn(C3CC3)c2=O)n1 [Example 346]
Cc1ccc(-c2cc(NC(=O)c3cc(CN[C@@H](C)C4CCC4)cn(C4CC4)c3=O)nc(OCC(F)F)c2)c(C(=O)N2CC(F)(F)C2)c1 [Example 347]
COc1ccc(-c2cc(NC(=O)c3cc(CNC[C@H](C)OC)cn(C4CC4)c3=O)nc(OCC(F)F)c2)c(C(=O)N2CC(F)(F)C2)c1 [Example 348]
CO[C@@H](C)CNCc1cc(C(=O)Nc2cc(-c3ccc(C)cc3C(=O)N3CC(F)(F)C3)cc(OCC(F)F)n2)c(=O)n(C2CC2)c1 [Example 349]
Cn1cc(CNC[C@@H]2CCCO2)cc(C(=O)Nc2cc(-c3ccc(C#N)cc3C(=O)N3CC(F)(F)C3)cc(OCF)n2)c1=O [Example 350]
C[C@H](NCc1cc(C(=O)Nc2cc(-c3ccc(C#N)cc3C(=O)N3CC(F)(F)C3)cc(C3CC3)n2)c(=O)n(C2CC2)c1)C1CCC1 [Example 351]
N#Cc1ccc(-c2cc(NC(=O)c3cc(CNC[C@@H]4CCCO4)cn(C4CC4)c3=O)nc(C3CC3)c2)c(C(=O)N2CC(F)(F)C2)c1 [Example 352]
CO[C@@H](C)CNCc1cc(C(=O)Nc2cc(-c3ccc(Cl)cc3C(=O)N3CC(F)(F)C3)cc(C3CC3)n2)c(=O)n(C2CC2)c1 [Example 353]
C[C@H](NCc1cc(C(=O)Nc2cc(-c3ccc(C#N)cc3C(=O)N3CC(F)(F)C3)cc(C3CC3)n2)c(=O)n(C)c1)[C@@H]1CCCO1 [Example 354]
N#Cc1ccc(-c2cc(NC(=O)c3cc(CNCC4CCC4)cn(C4CC4)c3=O)nc(C3CC3)c2)c(C(=O)N2CC(F)(F)C2)c1 [Example 355]
CC(C)CNCc1cc(C(=O)Nc2cc(-c3ccc(C#N)cc3C(=O)N3CC(F)(F)C3)cc(C3CC3)n2)c(=O)n(C2CC2)c1 [Example 356]
CO[C@@H](C)CNCc1cc(C(=O)Nc2cc(-c3ccc(F)cc3C(=O)N3CC(F)(F)C3)cc(NC(C)C)n2)c(=O)n(C2CC2)c1 [Example 357]
C[C@H](NCc1cc(C(=O)Nc2cc(-c3ccc(C#N)cc3C(=O)N3CC(F)(F)C3)cc(C3CC3)n2)c(=O)n(C2CC2)c1)C1CCCC1 [Example 358]
CO[C@@H](C)[C@H](C)NCc1cc(C(=O)Nc2cc(-c3ccc(Cl)cc3C(=O)N3CC(F)(F)C3)cc(C3CC3)n2)c(=O)n(C2CC2)c1 [Example 359]
CO[C@@H](C)CNCc1cc(C(=O)Nc2cc(-c3ccc(F)cc3C(=O)N3CC(F)(F)C3)cc(C3CC3)n2)c(=O)n(C2CC2)c1 [Example 360]
COC[C@H](C)NCc1cc(C(=O)Nc2cc(-c3ccc(C#N)cc3C(=O)N3CC(F)(F)C3)cc(C3CC3)n2)c(=O)n(C2CC2)c1 [Example 361]
CC(C)[C@H](C)NCc1cc(C(=O)Nc2cc(-c3ccc(C#N)cc3C(=O)N3CC(F)(F)C3)cc(C3CC3)n2)c(=O)n(C2CC2)c1 [Example 362]
CO[C@H]1CCC[C@@H]1NCc1cc(C(=O)Nc2cc(-c3ccc(C#N)cc3C(=O)N3CC(F)(F)C3)cc(C3CC3)n2)c(=O)n(C2CC2)c1 [Example 363]
CO[C@@H](C)CNCc1cc(C(=O)Nc2cc(-c3ccc(C#N)cc3C(=O)N3CCC3)cc(C3CC3)n2)c(=O)n(C2CC2)c1 [Example 364]
C[C@H](NCc1cc(C(=O)Nc2cc(-c3ccc(C#N)cc3C(=O)N3CC(F)(F)C3)cc(C3CC3)n2)c(=O)n(C2CC2)c1)C1CC1 [Example 365]
N#Cc1ccc(-c2cc(NC(=O)c3cc(CNC[C@@H]4CCCCO4)cn(C4CC4)c3=O)nc(C3CC3)c2)c(C(=O)N2CC(F)(F)C2)c1 [Example 366]
CO[C@@H](C)CNCc1cc(C(=O)Nc2cc(-c3c(F)cc(F)cc3C(=O)N3CC(F)(F)C3)cc(C3CC3)n2)c(=O)n(C2CC2)c1 [Example 367]
CO[C@@H](C)CNCc1cc(C(=O)Nc2cc(-c3c(F)cc(F)cc3C(=O)N3CC(F)(F)C3)cc(OC(C)C)n2)c(=O)n(C2CC2)c1 [Example 368]
N#Cc1ccc(-c2cc(NC(=O)c3cc(CNC[C@@H]4COCCO4)cn(C4CC4)c3=O)nc(C3CC3)c2)c(C(=O)N2CC(F)(F)C2)c1 [Example 369]
O=C(Nc1cc(-c2ccc(Cl)cc2C(=O)N2CC(F)(F)C2)cc(C2CC2)n1)c1cc(CNCC2CCC2)cn(C2CC2)c1=O [Example 370]
CC(C)Oc1cc(-c2ccc(C#N)cc2C(=O)N2CC(F)(F)C2)cc(NC(=O)c2cc(CNC[C@@H]3COCCO3)cn(C3CC3)c2=O)n1 [Example 371]
COC[C@H](C)NCc1cc(C(=O)Nc2cc(-c3ccc(Cl)cc3C(=O)N3CC(F)(F)C3)cc(C3CC3)n2)c(=O)n(C2CC2)c1 [Example 372]
